{"source": "patent US4831029A", "about": "“Condensed cyclic triazole derivatives, pharmaceutical compositions and use” (priority 1986, dated 1989)", "format_in_all_cases": "in vivo", "key": {"[1]": {"experiment": "Yohimbine potentiating effect", "description": "The yohimbine potentiating effect is determined by the method of R. M. Quinton: Brit. […] Scand."}, "[2]": {"experiment": "Spasmolytic effect (inhibition of tetracor spasms)", "conditions": "for ED50: inhibition of tetracor spasms", "description": "(§1) The following test methods are used: Motility inhibition test: J. Borsy, E. Csanyi, J. Lazar: J. Arch. Int. Pharmacodyn. 124, 1-2 (1960); Inhibition of tetracor spasms: R. Benzinger, D. Hane: Arch. Int Pharmacodyn. 167, 245-249 (1967)."}, "[3]": {"experiment": "Motility inhibiting effect", "conditions": "for Motility inhibiting effect T.I. (therapeutical index): motility inhibition; for ED50: read-out: Motility inhibiting effect ED50", "description": "as §1"}, "[4]": {"experiment": "Hexobarbital narcosis potentiating effect", "conditions": "for Hexobarbital narcosis potentiating effect T.I. (therapeutical index): narcosis potentiation; for ED50: positive = narcosis time lengthened to at least 2.5-fold of control", "description": "In the hexobarbital narcosis potentiating test those animals are regarded as showing positive reaction in which the average narcosis time is lengthened to at least 2.5-fold of that of the control group.\nThe ED50 values are calculated from the data thus transformed."}}, "note": "Counter-ions that a name gives are not always drawn."}
{"smiles": "CN(C)CCC=C1c2ccccc2CCc2ccccc21", "note": "[Amitriptilin, reference compound]", "values": [{"measurement": "ED50", "setting": "[1]; method of Quinton, read-out: Yohimbin potentiating effect ED50", "value": 12.5, "unit": "mg/kg"}]}
{"smiles": "O=c1c2c(n(CCN3CCCCC3)c3nc(N4CCOCC4)nn13)CCN(Cc1ccccc1)C2", "note": "[Example 18, 7-Benzyl-2-morpholino-10-(2-piperidinoethyl)-6,7,8,9-tetrahydro-pyrido[4,3-d]-1,2,4-triazolo[1,5-a]pyrimidine-5(10H)-one]", "values": [{"measurement": "Spasmolytic effect T.I. (therapeutical index)", "setting": "[2]", "value": 6.6}, {"measurement": "ED50", "setting": "[2]", "value": 150, "unit": "mg/kg"}]}
{"smiles": "CN(C)CCCn1c2c(c(=O)n3nc(N4CCOCC4)nc13)CCN(Cc1ccccc1)C2", "note": "[Example 19, 8-Benzyl-10-(3-dimethylaminopropyl)-2-morpholino-6,7,8,9-tetrahydro-pyrido[3,4-d]-1,2,4-triazolo[1,5-a]pyrimidine-5(10H)-one]", "values": [{"measurement": "Motility inhibiting effect T.I. (therapeutical index)", "setting": "[3]", "value": 6.0}, {"measurement": "ED50", "setting": "[3]; motility inhibition test", "value": 200, "unit": "mg/kg"}, {"measurement": "Hexobarbital narcosis potentiating effect T.I. (therapeutical index)", "setting": "[4]", "value": 6.0}, {"measurement": "ED50", "setting": "[4]", "value": 200, "unit": "mg/kg"}]}
{"smiles": "O=c1c2c(n(CCN3CCCCC3)c3nc(N4CCOCC4)nn13)CN(Cc1ccccc1)CC2", "note": "[Example 19c, 8-Benzyl-2-morpholino-10-(2-piperidino-ethyl)-6,7,8,9-tetrahydro-pyrido[3,4-d]-1,2,4-triazolo[1,5-a]pyrimidine-5(10H)-one]", "values": [{"measurement": "Spasmolytic effect T.I. (therapeutical index)", "setting": "[2]", "value": 6.7}, {"measurement": "ED50", "setting": "[2]", "value": 150, "unit": "mg/kg"}, {"measurement": "Yohimbin potentiating effect T.I. (therapeutical index)", "setting": "[1]; T.I.=therapeutical index, yohimbine potentiation", "value": 47}]}
{"smiles": "CSc1nc2n(CCCN3CCOCC3)c3c(c(=O)n2n1)CN(Cc1ccccc1)CC3", "note": "[Example 19g, 7-Benzyl-2-methylthio-10-(3-morpholino-propyl)-6,7,8,9-tetrahydro-pyrido[4,3-d]-1,2,4-triazolo[1,5-a]pyrimidine-5(10H)-one fumarate]", "values": [{"measurement": "Spasmolytic effect T.I. (therapeutical index)", "setting": "[2]", "value": 8.5}, {"measurement": "ED50", "setting": "[2]", "value": 100, "unit": "mg/kg"}]}
{"smiles": "O=c1c2c(n(CCN3CCCC3)c3nc(N4CCOCC4)nn13)CN(Cc1ccccc1)CC2", "note": "[Example 20, 8-Benzyl-2-morpholino-10-(2-pyrrolidinoethyl)-6,7,8,9-tetrahydro-pyrido[3,4-d]-1,2,4-triazolo[1,5-a]pyrimidine-5(10H)-one]", "values": [{"measurement": "Spasmolytic effect T.I. (therapeutical index)", "setting": "[2]", "value": 6.5}, {"measurement": "ED50", "setting": "[2]", "value": 155, "unit": "mg/kg"}]}
{"smiles": "CCCC(C)(COC(N)=O)COC(N)=O", "note": "[Meprobamat, reference compound]", "values": [{"measurement": "Motility inhibiting effect T.I. (therapeutical index)", "setting": "[3]", "value": 4.1}, {"measurement": "ED50", "setting": "[3]", "value": 270, "unit": "mg/kg"}, {"measurement": "Hexobarbital narcosis potentiating effect T.I. (therapeutical index)", "setting": "[4]", "value": 4.1}, {"measurement": "ED50", "setting": "[4]", "value": 260, "unit": "mg/kg"}]}
{"smiles": "CN1C(=O)OC(C)(C)C1=O", "note": "[Trimetadion, reference compound]", "values": [{"measurement": "ED50", "setting": "[2]", "value": 490, "unit": "mg/kg"}]}
